# In patent publication US8859534B2, “2-carboxamide-7-piperazinyl-benzofuran derivatives” (AstraZeneca AB, priority 2009, dated 2014):
# Key:
# [1] = biological target: 5-HT1A receptor (Homo sapiens (Human), UniProt P08908); test: 5-HT1A receptor competition binding assay (SPA, [3H]-8-OH-DPAT); conditions: membranes of CHO cells expressing 5-HT1A receptors; radioligand [3H]-8-OH-DPAT 0.15-0.2 nM
# From the text: (§1) Assays that were used to measure affinity of the compounds of the present invention for 5-HT1A and 5-HT1B receptors are described in J. Recept Signal Transduct. Res. 22:483-495 (2002) and Naunyn-Schmiedeberg's Arch Pharmacol. 356:328-334 (1997) and incorporated by reference herein. These assays were be used with some modifications:
# (§2) For the binding assay stably transfected chinese hamster ovary (CHO) cell lines expressing 5-HT1A receptors or 5-HT1B receptors were harvested by centrifugation at 300×g for 10 min and resuspended in 10 mM Tris-HCl, 5 mM EDTA at pH 7.4. The cells were pooled, recentrifuged and resuspended before homogenisation using a Dounce homogeniser (“type B”). Cell membranes were centrifuged at 48 000×g for 10 min and then resuspended in harvesting buffer using an Ultra-Turrax T8 (IKA Labortechnik, Germany), aliquots were stored frozen in −70° C.
# Frozen membrane preparations were thawed, homogenized with an Ultra-Turrax and mixed with SPA beads (YSI coated WGA, GE Healthcare/Amersham, Buckinghamshire, UK) in assay buffer containing 50 mM Tris-Base, 4 mM MgCl2, 4 mM CaCl2 (only 5-HT1B), 1 mM EDTA, and adjusted to pH 7.4 with HCl. […] The binding assays were performed in 384-well plates in a final volume of 90 μL/well with the following additions: 9 μL binding buffer; 1 μL compound/DMSO/nonspecific; 20 μL radioligand; and 60 μL beads/membrane mixture. Non-specific binding was defined by using 10 μM WAY100635 for 5-HT1A and 10 μM Methiothepin for 5-HT1B. The assay plates were incubated for 4 hours where after the plates are counted in a Wallac 1450 Microbeta Trilux counter (PerkinElmer LifeScience, US) or similar. Data from the experiments were analyzed using a four parameter logistic equation as follows: Y=Bottom+(Top-Bottom)/1+10^(LogEC50-X)nH.
# [2] = biological target: 5-HT1B receptor (Homo sapiens (Human), UniProt P28222); test: 5-HT1B receptor competition binding assay (SPA, [3H]-GR125743); conditions: membranes of CHO cells expressing 5-HT1B receptors; radioligand [3H]-GR125743 0.15-0.2 nM
# From the text: as §1, §2
# Frozen membrane preparations were thawed, homogenized with an Ultra-Turrax and mixed with SPA beads (YSI coated WGA, GE Healthcare/Amersham, Buckinghamshire, UK) in assay buffer containing 50 mM Tris-Base, 4 mM MgCl2, 4 mM CaCl2 (only 5-HT1B), 1 mM EDTA, and adjusted to pH 7.4 with HCl. The beads/membrane solution, final concentration 100 pM receptors for 5-HT1A, 300 pM receptors for 5-HT1B and 0.5 mg SPA beads/well, was pre-incubated in room temperature with stirring for 30-60 min. […] Five (log interval, 10 μM to 1 nM, final concentration) or ten serial dilutions (½-log interval, 10 μM to 0.32 nM, final concentration) of compounds were prepared in DMSO from 10 mM stock solutions. The binding assays were performed in 384-well plates in a final volume of 90 μL/well with the following additions: 9 μL binding buffer; 1 μL compound/DMSO/nonspecific; 20 μL radioligand; and 60 μL beads/membrane mixture. Non-specific binding was defined by using 10 μM WAY100635 for 5-HT1A and 10 μM Methiothepin for 5-HT1B. The assay plates were incubated for 4 hours where after the plates are counted in a Wallac 1450 Microbeta Trilux counter (PerkinElmer LifeScience, US) or similar. Data from the experiments were analyzed using a four parameter logistic equation as follows: Y=Bottom+(Top-Bottom)/1+10^(LogEC50-X)nH.
# • Jerning E., Rosqvist S., Mohell N. (2002) NAD-299 antagonises 5-HT-stimulated and Spiperone-inhibited [^35S]GTPγS binding in cloned 5-HT1A receptors. J Recept Signal Transduct Res 22:483-495. • Doménech T., Beleta J., Palacios J. M. (1997) Characterization of human serotonin 1D and 1B receptors using [^3H]-GR-125743, a novel radiolabelled serotonin 5HT1D/1B receptor antagonist. Naunyn-Schmiedeberg's Arch Pharmacol 356:328-334.
# Sequence of 5-HT1B receptor (P28222 whole entry): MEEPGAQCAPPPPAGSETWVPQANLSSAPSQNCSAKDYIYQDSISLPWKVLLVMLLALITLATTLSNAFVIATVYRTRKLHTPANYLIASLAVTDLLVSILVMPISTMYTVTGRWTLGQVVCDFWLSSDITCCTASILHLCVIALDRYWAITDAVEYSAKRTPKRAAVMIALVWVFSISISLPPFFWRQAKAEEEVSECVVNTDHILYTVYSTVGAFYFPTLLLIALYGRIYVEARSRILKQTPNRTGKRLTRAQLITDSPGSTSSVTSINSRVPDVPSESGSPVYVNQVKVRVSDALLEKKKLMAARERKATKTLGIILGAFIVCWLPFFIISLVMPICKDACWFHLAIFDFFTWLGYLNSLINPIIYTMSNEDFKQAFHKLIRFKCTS
# Sequence of 5-HT1A receptor (P08908 whole entry): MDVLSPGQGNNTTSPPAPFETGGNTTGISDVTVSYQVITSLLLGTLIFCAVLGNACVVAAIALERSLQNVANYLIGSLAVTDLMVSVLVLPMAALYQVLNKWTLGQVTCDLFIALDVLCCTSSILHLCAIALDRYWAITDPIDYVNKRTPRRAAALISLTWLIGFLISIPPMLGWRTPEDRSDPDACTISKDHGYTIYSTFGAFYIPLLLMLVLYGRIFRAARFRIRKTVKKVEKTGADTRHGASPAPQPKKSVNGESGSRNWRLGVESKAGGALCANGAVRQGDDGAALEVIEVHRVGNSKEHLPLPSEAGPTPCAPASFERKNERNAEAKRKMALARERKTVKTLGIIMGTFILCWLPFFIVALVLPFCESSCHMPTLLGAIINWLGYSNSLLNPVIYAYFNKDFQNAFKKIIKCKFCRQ
Compound,Ki [1],Ki [2]
"N#Cc1cccc(CNC(=O)c2cc3cccc(N4CCN(CCc5ccccn5)CC4)c3o2)c1 [Example 22, N-(3-Cyanobenzyl)-7-(4-(2-(pyridin-2-yl)ethyl)piperazin-1-yl)benzofuran-2-carboxamide]",0.91 nM,9.1 nM
"O=C(c1cc2cccc(N3CCN(CCc4ccccn4)CC3)c2o1)N1CCN(c2nccs2)CC1 [Example 23, (7-(4-(2-(Pyridin-2-yl)ethyl)piperazin-1-yl)benzofuran-2-yl)(4-(thiazol-2-yl)piperazin-1-yl)methanone]",4.2 nM,1.4 nM
"COc1cccnc1N1CCC(NC(=O)c2cc3cccc(N4CCN(CCc5ccccn5)CC4)c3o2)CC1 [Example 24, N-(1-(3-Methoxypyridin-2-yl)piperidin-4-yl)-7-(4-(2-(pyridin-2-yl)ethyl)piperazin-1-yl)benzofuran-2-carboxamide]",0.42 nM,0.56 nM
"CN(Cc1ccccn1)C(=O)c1cc2cccc(N3CCN(CCc4ccccn4)CC3)c2o1 [Example 25, N-Methyl-7-(4-(2-(pyridin-2-yl)ethyl)piperazin-1-yl)-N-(pyridin-2-ylmethyl)benzofuran-2-carboxamide]",2.9 nM,31 nM
"COc1cccc(CNC(=O)c2cc3cccc(N4CCN(CCc5ccccn5)CC4)c3o2)c1 [Example 26, N-(3-Methoxybenzyl)-7-(4-(2-(pyridin-2-yl)ethyl)piperazin-1-yl)benzofuran-2-carboxamide]",0.91 nM,2.3 nM
"O=C(NC1(c2ccccn2)CC1)c1cc2cccc(N3CCN(CCc4ccccn4)CC3)c2o1 [Example 27, N-(1-(Pyridin-2-yl)cyclopropyl)-7-(4-(2-(pyridin-2-yl)ethyl)piperazin-1-yl)benzofuran-2-carboxamide]",2.3 nM,35 nM
"COc1ccc(CNC(=O)c2cc3cccc(N4CCN(CCc5ccccn5)CC4)c3o2)cc1 [Example 28, N-(4-Methoxybenzyl)-7-(4-(2-(pyridin-2-yl)ethyl)piperazin-1-yl)benzofuran-2-carboxamide]",0.85 nM,1 nM
"Cc1ccnc(CCNC(=O)c2cc3cccc(N4CCN(CCc5ccccn5)CC4)c3o2)n1 [Example 29, N-(2-(4-Methylpyrimidin-2-yl)ethyl)-7-(4-(2-(pyridin-2-yl)ethyl)piperazin-1-yl)benzofuran-2-carboxamide]",2 nM,19 nM
"O=C(NCC1CCOCC1)c1cc2cccc(N3CCN(CCc4ccccn4)CC3)c2o1 [Example 31, 7-(4-(2-(Pyridin-2-yl)ethyl)piperazin-1-yl)-N-((tetrahydro-2H-pyran-4-yl)methyl)benzofuran-2-carboxamide]",1.5 nM,50 nM
"CC(NC(=O)c1cc2cccc(N3CCN(CCc4ccccn4)CC3)c2o1)c1ccnn1C (centres unmarked) [Example 32, N-(1-(1-Methyl-1H-pyrazol-5-yl)ethyl)-7-(4-(2-(pyridin-2-yl)ethyl)piperazin-1-yl)benzofuran-2-carboxamide]",12 nM,280 nM
"Cc1ccc(C(C)NC(=O)c2cc3cccc(N4CCN(CCc5ccccn5)CC4)c3o2)cn1 (centres unmarked) [Example 33, N-(1-(6-Methylpyridin-3-yl)ethyl)-7-(4-(2-(pyridin-2-yl)ethyl)piperazin-1-yl)benzofuran-2-carboxamide]",2.1 nM,44 nM
"Cc1ncc(CNC(=O)c2cc3cccc(N4CCN(CCc5ccccn5)CC4)c3o2)cn1 [Example 34, N-((2-Methylpyrimidin-5-yl)methyl)-7-(4-(2-(pyridin-2-yl)ethyl)piperazin-1-yl)benzofuran-2-carboxamide]",3.8 nM,38 nM
"O=C(NCc1cccnc1)c1cc2cccc(N3CCN(CCc4ccccn4)CC3)c2o1 [Example 35, 7-(4-(2-(Pyridin-2-yl)ethyl)piperazin-1-yl)-N-(pyridin-3-ylmethyl)benzofuran-2-carboxamide]",2 nM,34 nM
"O=C(c1cc2cccc(N3CCN(CCc4ccccn4)CC3)c2o1)N1CC(Oc2cccnc2)C1 [Example 36, (7-(4-(2-(Pyridin-2-yl)ethyl)piperazin-1-yl)benzofuran-2-yl)(3-(pyridin-3-yloxy)azetidin-1-yl)methanone]",1.9 nM,0.46 nM
"O=C(NCc1cccc(O)c1)c1cc2cccc(N3CCN(CCc4ccccn4)CC3)c2o1 [Example 37, N-(3-Hydroxybenzyl)-7-(4-(2-(pyridin-2-yl)ethyl)piperazin-1-yl)benzofuran-2-carboxamide]",0.23 nM,3.5 nM
"CC(=O)N1CCc2cc(CCN3CCN(c4cccc5cc(C(=O)N(C)C)oc45)CC3)ccc21 [Example 38, 7-(4-(2-(1-Acetylindolin-5-yl)ethyl)piperazin-1-yl)-N,N-dimethylbenzofuran-2-carboxamide]",0.064 nM,1.6 nM
"Cc1ccc(CCN2CCN(c3cccc4cc(C(=O)N(C)C)oc34)CC2)nc1 [Example 40, N,N-dimethyl-7-(4-(2-(5-methylpyridin-2-yl)ethyl)piperazin-1-yl)benzofuran-2-carboxamide]",0.14 nM,1.3 nM
"CN(C)C(=O)c1cc2cccc(N3CCN(CCc4cccc(C(F)(F)F)n4)CC3)c2o1 [Example 42, N,N-dimethyl-7-(4-(2-(6-(trifluoromethyl)pyridin-2-yl)ethyl)piperazin-1-yl)benzofuran-2-carboxamide]",0.64 nM,7 nM
"CC(=O)c1ccc(CCN2CCN(c3cccc4cc(C(=O)N(C)C)oc34)CC2)nc1 [Example 43, 7-(4-(2-(5-Acetylpyridin-2-yl)ethyl)piperazin-1-yl)-N,N-dimethylbenzofuran-2-carboxamide]",0.33 nM,2 nM
"CC(=O)Nc1ccc(CCN2CCN(c3cccc4cc(C(=O)N(C)C)oc34)CC2)nc1 [Example 44, 7-(4-(2-(5-Acetamidopyridin-2-yl)ethyl)piperazin-1-yl)-N,N-dimethylbenzofuran-2-carboxamide]",3.7 nM,20 nM
"COc1cccc(CCN2CCN(c3cccc4cc(C(=O)N(C)C)oc34)CC2)n1 [Example 46, 7-(4-(2-(6-Methoxypyridin-2-yl)ethyl)piperazin-1-yl)-N,N-dimethylbenzofuran-2-carboxamide]",1.3 nM,1.4 nM
"CN(C)C(=O)c1cc2cccc(N3CCN(CCc4ccc(F)cn4)CC3)c2o1 [Example 47, 7-(4-(2-(5-Fluoropyridin-2-yl)ethyl)piperazin-1-yl)-N,N-dimethylbenzofuran-2-carboxamide]",0.22 nM,19 nM
"CN(C)C(=O)c1cc2cc(F)cc(N3CCN(CCc4ccccn4)CC3)c2o1 [Example 50, 5-Fluoro-N,N-dimethyl-7-(4-(2-(pyridin-2-yl)ethyl)piperazin-1-yl)benzofuran-2-carboxamide]",0.43 nM,8.2 nM
"CC(=O)N1CCc2cc(CCN3CCN(c4cc(F)cc5cc(C(=O)N(C)C)oc45)CC3)ccc21 [Example 51, 7-(4-(2-(1-Acetylindolin-5-yl)ethyl)piperazin-1-yl)-5-fluoro-N,N-dimethylbenzofuran-2-carboxamide]",0.23 nM,5 nM
"COc1cc(N2CCN(CCc3ccccn3)CC2)c2oc(C(=O)N(C)C)cc2c1 [Example 52, 5-Methoxy-N,N-dimethyl-7-(4-(2-(pyridin-2-yl)ethyl)piperazin-1-yl)benzofuran-2-carboxamide]",2.8 nM,140 nM
